Bounds are passed on as bounds.

We go through 19 compounds from article PMC11726359, “Discovery of Rezatapopt (PC14586), a First-in-Class, Small-Molecule Reactivator of p53 Y220C Mutant in Development” (ACS Medicinal Chemistry Letters, 2024).

The target in data set [1] is T1, recombinant His-tag Y220C p53 DNA binding domain (Homo sapiens, UniProt P04637, Y220C).
T1 construct: Y220C p53 DBD protein (amino acids #94-312); made in house
As to the kind of experiment: TR-FRET DNA binding assay (SC150). It counts as biochemical. The text has this:
At the outset of our hit generation campaign, several small molecules targeting the p53 Y220C mutant protein were identified. Two notable examples, supported by crystallographic data, were the compounds from the carbazole series[6] (PhiKan83) and the iodophenol series[7] (PK1596) (Figure 1). To assess the in vitro potency of the p53 Y220C reactivators, a time-resolved fluorescence resonance energy transfer (FRET) assay was developed. In this assay, recombinant His-tag Y220C p53 DNA binding domain binds to biotin-labeled consensus DNA, and the FRET signal is measured between the allophycocyanin-conjugated anti-His-tag antibody and europium-conjugated streptavidin. The […] concentration required to increase DNA binding by 1.5-fold (SC150) could then be determined. The carbazole compound (PhiKan83) enhanced DNA binding with an SC150 of 37.2 μM. […]
Time-Resolved Fluorescence Resonance Energy Transfer (TR-FRET) Assay
DNA binding activity was measured by the TR-FRET assay. In this assay, the recombinant His6-tag Y220C p53 DNA binding domain (DBD) protein binds to biotin labeled consensus DNA. The binding of recombinant His6-tag Y220C p53 DBD protein and biotin-labeled consensus DNA is detected by the fluorescence resonance energy transfer (FRET) between allophycocyanin (APC) conjugated anti-His6 tag antibody and Europium-(Eu) conjugated Streptavidin. Test compounds, at 2 mM stock in DMSO, were diluted t hr e e-f ol d in serial dilutions in DMSO and 1.2 µL per well were added into 384-well polypropylene black plates (NUNC). Subsequently, 30 µL per well of 181 nM recombinant His6-tag Y220C p53 DBD protein (amino acids #94-312) and 9.1 nM of APC conjugated anti-His6 tag antibody (Columbia Biosciences) in ice-cold Assay Buffer 1 (50 mM Tris-HCl, pH 7.4, 75 mM KCl, 0.75 mM DTT and 0.2 mg/mL bovine serum albumin [BSA]) was added. As a background control, 30 µL of Assay Buffer 1 containing 9.1 nM of APC anti-His6 antibody (no Y220C protein) was also added into a second set of serial diluted compound plates. The samples were centrifuged at 1,200 rpm (Eppendorf 5810R plate centrifuge) for 1 minute and incubated at room temperature (20 °C) for 15 min. The samples were then incubated at 27 °C in a water bath for 48 min. Afterwards, 5 µL per well of 145 nM biotin labeled oligonucleotide from a consensus DNA p53 response element (a DNA duplex with 5’ to 3’sequence of […]
and biotin attached to the 3’ end of the complementary DNA) and 8.8 nM Eu-conjugated streptavidin (Columbia Biosciences) in Assay Buffer 2 (50 mM Tris-HCl, pH 7.4, 75 mM KCl and 0.2 mg/mL BSA) were added. The samples were centrifuged at 1,200 rpm for 1 min and incubated at room temperature (20 °C) for 20 min. Assay signals were monitored by reading excitation at 340 nm, and emission fluorescence at 615 and 665 nm, on an Envision reader (Perkin El mer). Normalized TR -FRET assay signal (Rn) was calculated by the formula:
Rn = [(A − B a − C × (D − Bd))/(D − Bd)] × (Dc − B d),
C = (Ac − B a)/(Dc − B d), […]
On the technique in general: In TR-FRET formats the signal depends on donor and acceptor labels being close together.

Data set [2] deals with NUGC-3, gastric cancer cell line with a TP53 Y220C mutation. Briefly: MTT cell proliferation assay. To be noted: for IC50: Homo sapiens, NUGC-3, 120 h, NUGC-3 cells, five days incubation. The format is cell-based, human. The protocol: We also evaluated the effects of these compounds on the growth and viability of four cancer cell lines in vitro. Two of the cell lines (NUGC-3, gastric cancer cell line with a TP53 Y220C mutation and T3M-4, pancreatic carcinoma cell line) have the TP53 Y220C mutation leading to the p53 Y220C mutant protein; SJSA-1 is a p53 WT cell line, and NUGC-3-KO is an isogenic p53 knockout cell line.[11] After incubating the cells with the compounds for five days, cell viability was measured using the 3-(4,5-dimethylthiazol-2-yl)-2,5-diphenyltetrazolium bromide (MTT) assay.
C = (Ac − B a)/(Dc − B d),
Prism (GraphPad) or XLfit software (IDBS).
Cells were seeded at an appropriate
Compounds were tested at eight concentrations with 2-fold serial dilutions. […]
with a reference wavelength of 650 nm. […]
untreated cells (control). […]

A short description of data set [3]: Pharmacokinetic study in mice. To be noted: Table 2, PO, 50 mg/kg.
Description: Pharmacokinetic parameters were evaluated in female CD-1 mice. Animals received an oral gavage dose of 50 mg/kg of the test article. The test article was formulated in a solution containing 2% hydroxypropyl
cellulose and 0.5% Tween 80 in water. Blood samples were collected at 0.5, 1, 2, 4, 7, and 24 h post dose.
Blood samples were processed into plasma, and the concentrations of the test article were determined by
LC-MS/MS. P harmacokinetic parameters were calculated using the Phoenix WinNonlin 6.3 program,
employing a non- compartmental model 200.
Setting [4] is: Table 2, concentration required to increase DNA binding by 1.5-fold.
[5] abbreviates: Table 1, concentration required to increase DNA binding by 1.5-fold.
Where [6] appears, read: Table 3, concentration required to increase DNA binding by 1.5-fold.
Setting [7] is: Figure 1, enhancement of DNA binding.

For the compound `COc1cc(S(C)(=O)=O)ccc1NCC#Cc1cc2c(N[C@@H]3CCN(C)C[C@H]3F)cccc2n1CC(F)(F)F` (racemic) [Compound 19, Rac-N-[(3R,4R)-3-fluoro-1-methyl-4-piperidyl]-2-[3-(2-methoxy-4-methylsulfonyl-anilino)prop-1-ynyl]-1-(2,2,2-trifluoroethyl)indol-4-amine], the SC150 in data set [1] (setting [4]) amounted to 0.02 µM. In data set [2] (Table 2), this compound registered an IC50 of 3000 nM. For `COc1cc(S(C)(=O)=O)ccc1NCC#Cc1cc2c(N[C@@H]3CCN(C)C[C@@H]3F)cccc2n1CC(F)(F)F` (racemic) [Compound 20, Rac-N-[(3S,4R)-3-fluoro-1-methyl-4-piperidyl]-2-[3-(2-methoxy-4-methylsulfonyl-anilino)prop-1-ynyl]-1-(2,2,2-trifluoroethyl)indol-4-amine], the SC150 in data set [1] (setting [4]) worked out at 0.009 µM. In addition, the IC50 in data set [2] (Table 2) was determined as 700 nM. In addition, in data set [2] (among the two pairs of stereoisomers from fluorine substitution of compound 13), the “fold higher potency in the MTT assay” value is listed as “over 3 fold”. As for `CCn1c(C#CCNc2ccccc2)cc2cc(C(=O)NC3CCN(C)CC3)ccc21` [Compound 2, 2-(3-anilinoprop-1-ynyl)-1-ethyl-N-(1-methyl-4-piperidyl)indole-5-carboxamide], the SC150 in data set [1] (setting [5]) is greater than 150 µM.

In the case of `CCn1c(C#CCNc2ccccc2)cc2cc(CNC3CCOCC3)ccc21` [Compound 3, N-((1-ethyl-2-(3-(phenylamino)prop-1-yn-1-yl)-1H-indol-5-yl)methyl)tetrahydro-2H-pyran-4-amine], in data set [1] (setting [5]), the SC150 is 26.5 µM. Consider `CCn1c(C#CCNc2ccc(C)nc2)cc2cc(CNC3CCOCC3)ccc21` [Compound 4, N-(3-(1-ethyl-5-(((tetrahydro-2H-pyran-4-yl)amino)methyl)-1H-indol-2-yl)prop-2-yn-1-yl)-6-methylpyridin-3-amine], for which the SC150 in data set [1] (setting [5]) turned out to be 6.3 µM.

Turning to `CCn1c(C#CCNc2ccc(C(C)(C)C)nc2)cc2cc(CNC)ccc21` [Compound 5, 6-(tert-butyl)-3-(3-{1-ethyl-5-[(methylamino)methyl]-2-indolyl}-2-propynylamino)pyridine], the SC150 in data set [1] (setting [5]) worked out at 6.4 µM. On the same count and under the same terms, the value for `CCn1c(C#CCNc2ccc(C(C)(C)C#N)nc2)cc2cc(CNC3CCOCC3)ccc21` [Compound 6, 2-(5-((3-(1-ethyl-5-(((tetrahydro-2H-pyran-4-yl)amino)methyl)-1H-indol-2-yl)prop-2-yn-1-yl)amino)pyridin-2-yl)-2-methylpropanenitrile] was 1.3 µM.

Take `CC(C)(C#N)c1ccc(NCC#Cc2cc3cc(CNC4CCOCC4)ccc3n2CC(F)(F)F)cn1` [Compound 7, 2-methyl-2-(5-((3-(5-(((tetrahydro-2H-pyran-4-yl)amino)methyl)-1-(2,2,2-trifluoroethyl)-1H-indol-2-yl)prop-2-yn-1-yl)amino)pyridin-2-yl)propanenitrile]: the SC150 in data set [1] (setting [5]) is 0.48 µM. `CC(C)(C#N)c1ccc(NCC#Cc2cc3c(CNC4CCOCC4)cccc3n2CC(F)(F)F)cn1` [Compound 8, 2-methyl-2-(5-((3-(4-(((tetrahydro-2H-pyran-4-yl)amino)methyl)-1-(2,2,2-trifluoroethyl)-1H-indol-2-yl)prop-2-yn-1-yl)amino)pyridin-2-yl)propanenitrile]: the SC150 in data set [1] (setting [5]) worked out at 1.300 µM. The same measure, in the same setting: the same measure for `CC(C)(C#N)c1ccc(NCC#Cc2cc3c(NC4CCOCC4)cccc3n2CC(F)(F)F)cn1` [Compound 9, 2-methyl-2-(5-((3-(4-((tetrahydro-2H-pyran-4-yl)amino)-1-(2,2,2-trifluoroethyl)-1H-indol-2-yl)prop-2-yn-1-yl)amino)pyridin-2-yl)propanenitrile]: 0.105 µM; for `CN1CCC(Nc2cccc3c2cc(C#CCNc2ccc(C(C)(C)C#N)nc2)n3CC(F)(F)F)CC1` [Compound 10, 2-methyl-2-(5-((3-(4-((1-methylpiperidin-4-yl)amino)-1-(2,2,2-trifluoroethyl)-1H-indol-2-yl)prop-2-yn-1-yl)amino)pyridin-2-yl)propanenitrile]: 0.054 µM. On the same count and under the same terms, the same measure for `CN1CCC(Nc2cccc3c2cc(C#CCNc2ccc(S(C)(=O)=O)cc2)n3CC(F)(F)F)CC1` [Compound 11, N-(1-methylpiperidin-4-yl)-2-(3-((4-(methylsulfonyl)phenyl)amino)prop-1-yn-1-yl)-1-(2,2,2-trifluoroethyl)-1H-indol-4-amine]: 0.027 µM. The same measure, in the same setting: the same measure for `Cc1cc(S(C)(=O)=O)ccc1NCC#Cc1cc2c(NC3CCN(C)CC3)cccc2n1CC(F)(F)F` [Compound 12, 2-[3-(2-methyl-4-methylsulfonyl-anilino)prop-1-ynyl]-N-(1-methyl-4-piperidyl)-1-(2,2,2-trifluoroethyl)indol-4-amine]: 0.030 µM; for `CN1CCC(Nc2cccc3c2cc(C#CCNc2ccc(S(C)(=O)=O)cc2OC(F)(F)F)n3CC(F)(F)F)CC1` [Compound 14, N-(1-methyl-4-piperidyl)-2-[3-[4-methylsulfonyl-2-(trifluoromethoxy)anilino]prop-1-ynyl]-1-(2,2,2-trifluoroethyl)indol-4-amine]: 0.030 µM. With `COc1cc(S(C)(=O)=O)ccc1NCC#Cc1cc2c(N[C@H]3CCN(C)C[C@H]3F)cccc2n1CC(F)(F)F` [Compound 21, N-[(3R,4S)-3-fluoro-1-methyl-4-piperidyl]-2-[3-(2-methoxy-4-methylsulfonyl-anilino)prop-1-ynyl]-1-(2,2,2-trifluoroethyl)indol-4-amine], the SC150 in data set [1] (setting [4]) amounted to 0.02 µM. Besides, 2300 nM corresponded to half-maximal inhibition in data set [2] (Table 2) (IC50). In data set [3], the “Mouse PK Exposure AUC0-last” value worked out at 23233 ng·h/mL and the “Mouse PK Exposure Cmax” value is reported as 2353 ng/mL. Regarding `COc1cc(C(=O)N2CCN(C)CC2)ccc1NCC#Cc1cc2c(N[C@@H]3CCN(C)C[C@@H]3F)cccc2n1CC(F)(F)F` [Compound 30, [4-[3-[4-[[(3S,4R)-3-fluoro-1-methyl-4-piperidyl]amino]-1-(2,2,2-trifluoroethyl)indol-2-yl]prop-2-ynyl-amino]-3-methoxy-phenyl]-(4-methylpiperazin-1-yl)methanone], in data set [1] (setting [6]), the SC150 came to 0.009 µM. The same compound had an IC50 in data set [2] (Table 3) of 791 nM. As to `COc1cc(C(=O)NC2CCN(C)CC2)ccc1NCC#Cc1cc2c(N[C@@H]3CCN(C)C[C@@H]3F)cccc2n1CC(F)(F)F` [Compound 31, 4-[3-[4-[[(3S,4R)-3-fluoro-1-methyl-4-piperidyl]amino]-1-(2,2,2-trifluoroethyl)indol-2-yl]prop-2-ynyl-amino]-3-methoxy-N-(1-methyl-4-piperidyl)benzamide], the SC150 in data set [1] (setting [6]) was found to be 0.005 µM. In data set [2] (Table 3), this compound registered a half-inhibitory concentration (IC50) of 1160 nM. As to `CCN(CC)C1CCN(Cc2cc(C#CCNc3ccccc3)cc(I)c2O)CC1` [PK1596, reference compound], in data set [1] (setting [7]), the SC150 worked out at 1.6 µM. Same read-out and setting: the value for `CCn1c2ccccc2c2cc(CNC)ccc21` [PhiKan83, reference compound] was 37.2 µM.

As usually defined, the IC50 is the midpoint of a concentration-inhibition curve.
